Results as given in patent US20250320190A1, “Novel Inhibitors of Leucine Carboxyl Methyltransferase-1 (LCMT-1) and Methods of Use Thereof” (Temple University-Of The Commonwealth System of Higher …, priority 2024, published 2025).
In brackets after ≈: the same amount, converted by molar mass. Entries after “also recorded” stand apart in the source; their conditions may differ.

Key:
[1] = tested on: MCF7 cells; assay: Annexin V assay; assay type: cell-based, human; conditions: 5-20 μM, 48 hours
Procedure: (§1) MCF7, MDA-MB-231 and Rosi cells were treated with LB-100 and Compound 2 at 5-20 μM concentrations. After 48 hours, cells were lifted with Accutase and washed twice with PBS (pH 7.4) with 10% FBS. Cells were resuspended in annexin V binding buffer (10 mM HEPES (pH 7.4), 140 mM NaCl and 2.5 mM CaCl2)) and labeled with FITC-anti-Annexin V and 7-AAD (Biolegend, FITC Annexin V Apoptosis Detection Kit with 7-AAD, catalog #640922). Cell surface annexin V expression was assessed with flow cytometry.

[2] = tested on: Rosi cells; assay: Annexin V assay; assay type: cell-based, human; conditions: 5-20 μM, 48 hours
Procedure: as §1

[3] = tested on: MDA-MB-231 cells; assay: Annexin V assay; assay type: cell-based, human; conditions: 5-20 μM, 48 hours
Procedure: as §1

[4] = Kinetic solubility; assay type: physicochemical; conditions: 2% dimethylsulfoxide/PBS, aqueous buffer, kinetic from dmso stock; read-out: Max. Kinetic Solubility
From the text: (§2) There is no cause for concern at this stage since there are multiple strategies and reagents for enhancing aqueous solubility for animal in vivo studies (Savjani, K. T., A. K. Gajjar and J. K. Savjani, 2012, ISRN Pharm 2012: 195727.). […] While target tissue exposure is dependent on free, unbound fractions in the plasma, plasma protein binding can protect compounds from hepatic metabolism. Thus, in vivo metabolism and excretion are often determined by a balance between these two properties. In vivo half-life is a complicated property impacted upon by multiple factors and is difficult to predict. […] While these numbers are somewhat low for a drug candidate, they are acceptable for proof of concept tool molecules which can be given multiple times per day and at higher doses to saturate metabolism.

[5] = tested on: THP-1 cells; assay: Cytotoxicity assay (Ghost Dye 710 flow cytometry); assay type: cell-based; conditions: Homo sapiens, 48 hours
Procedure: (§3) Jurkat and THP-1 cells were seeded in 6-well plates at a density of 2.5×10^5 cells/mL. After 24 hours LCMT-li was added at various concentrations. After 48 hours, cells were pelleted and washed twice with ice-cold phosphate-buffered saline (PBS). Cells were stained with Ghost Dye™ 710 (Cytek®, Bethesda, Maryland) viability dye, 0.1 μL/mL in PBS on ice in the dark for 30 minutes. Cells were pelleted and washed twice with ice-cold PBS with 10% FBS. Cells were pelleted and fixed with 4% formaldehyde in PBS on ice for 15 minutes. Cells were pelleted and resuspended in PBS with 5% bovine serum albumin (BSA). Cells were analyzed with a Becton-Dickinson FACSymphony™ flow cytometer with at least 3 replicates; 3×10^4 cells were analyzed with each replicate for statistical significance.
(§4) Statistical analyses were performed with GraphPad Prism software (version 10.4.1). Effective concentrations that inhibited 50% of cells (EC50, log agonist versus response) were estimated with nonlinear fit curves. Absorbance values for cytotoxity assays and relative densities for Western blot assays were compared using Kruskal-Wallis analyses of variance with Dunn's correction for multiple comparisons. For flow cytometric analyses, two-way analyses of variance with Tukey's correction for multiple comparisons were used.

[6] = tested on: Jurkat cells; assay: Cytotoxicity assay (Ghost Dye 710 flow cytometry); assay type: cell-based; conditions: Homo sapiens, 48 hours
Procedure: as §3, §4

[7] = tested on: UM-SCC-49 cells; assay: Cell cycle analysis (BrdU) with and without irradiation; assay type: cell-based, human; conditions: combination vs irradiation alone
Procedure: (§5) Cells were treated with LCMT-li, radiotherapy or both as described for Annexin V assays. After 24 hours, cells were labeled with 50 μM bromodeoxyuridine (BrdU, BioGems, Westlake Village, California, catalog #5911439) for 4 hours. Cells were lifted with 0.25% trypsin, 2.21 mM ethylenediaminetetraacetic acid (EDTA) (Corning catalog #25-053-CI) after 4 hours and fixed with 70% ethanol overnight at −20° C. Cells were pelleted and permeabilized with 1 M HCl with 0.1% Triton X-100 for one minute. Cells were pelleted and cellular DNA was denatured with 2 M HCl. After neutralization with 1 M Tris, pH 8.5, cells were labeled with FITC-anti-BrdU (Biolegend, catalog #364104, 5 μL/100 μL cell suspension) and 7-aminoactinomycin-D (7-AAD, Biolegend, catalog #420404, 1 μL/100 μL cell suspension). Cells were washed with PBS with 10% FBS, and resuspended in PBS with 0.1% Triton X-100. Cells were analyzed with flow cytometry. Cell cycle analyses were performed twice with 12 replicates, 104 cells/replicate.

[8] = tested on: UM-SCC-69 cells; assay: as above; assay type: cell-based, human
Procedure: as §5

[9] = tested on: SCC-25 cells; assay: as above; assay type: cell-based, human
Procedure: as §5

[10] = tested on: UM-SCC-12 cells; assay: as above; assay type: cell-based, human; conditions: LCMT-li/irradiation combination vs irradiation alone
Procedure: as §5

[11] = tested on: UM-SCC-14a cells; assay: as above; assay type: cell-based, human; conditions: combination vs irradiation alone, listed as LCMT-li
Procedure: as §5

[12] = tested on: SCC-15 cells; assay: as above; assay type: cell-based, human; conditions: in the presence of irradiation
Procedure: as §5

[13] = Plasma stability; assay type: in vitro ADME; conditions: mouse plasma; read-out: Plasma Stability (t1/2)
From the text: as §2

[14] = tested on: MCF7 cells; assay: Cell cycle analysis (BrdU flow cytometry); assay type: cell-based, human; conditions: 20 μM, 24 hours
Procedure: (§6) MCF7, MDA-MB-231 and Rosi cells were seeded in 6-well tissue culture plates (Celltreat) at a density of 5×10^5 cells per well. After 24 hours, the DMEM was changed to media containing 20 μM LB-100 or Compound 2. Control cells were given fresh media. After 24 hours, cells were labeled with 50 μM bromodeoxyuridine (BrdU, BioGems, Westlake Village, California, catalog #5911439). Cells were lifted with 0.25% trypsin, 2.21 mM ethylenediaminetetraacetic acid (Corning catalog #25-053-CI) after 4 hours and fixed with 70% ethanol overnight at 4° C. Cells were pelleted and cellular DNA was denatured with HCl. After neutralization with 1 M Tris, pH 8.5, cells were labeled with FITC-anti-BrdU (Biolegend, San Diego, California, catalog #364104, 5 μL/100 μL cell suspension) and 7-aminoactinomycin-D (7-AAD, Biolegend, catalog #420404, 1 μL/100 μL cell suspension). Cells were analyzed with a Becton-Dickinson FACSymphony™ flow cytometer. Cell cycle analyses were performed three times.

[15] = tested on: Rosi cells; assay: Cell cycle analysis (BrdU flow cytometry); assay type: cell-based, human; conditions: 20 μM, 24 hours
Procedure: as §6

[16] = tested on: MDA-MB-231 cells; assay: Cell cycle analysis (BrdU flow cytometry); assay type: cell-based, human; conditions: 20 μM, 24 hours
Procedure: as §6

solubility kinetic [4]: 18.5 µM (≈ 7.82 µg/mL)
half-life [13]: > 3 h
SMILES: COC(=O)c1c(NC(=O)c2ccccc2C)sc(C(=O)Nc2cccc(C)c2)c1C [Compound 2, methyl 4-methyl-2-[(2-methylbenzoyl)amino]-5-[[(3-methylphenyl)amino]carbonyl]-3-thiophenecarboxylate]
apoptosis (cell surface annexin V expression) [1]: decreased cell surface annexin V
apoptosis (cell surface annexin V expression) [2]: did not induce apoptosis
apoptosis (cell surface annexin V expression) [3]: increased cell surface annexin V expression
EC50 [5]: 10.4 µM
EC50 [6]: 224 µM
cell cycle effect [7]: decreased G2/M phase arrest
cell cycle effect ([8]; LCMT-li alone vs control cells): induced G0/G1 arrest
cell cycle effect ([8]; combination vs irradiation alone): decreased G2/M phase arrest
cell cycle effect ([9]; LCMT-li alone vs control cells): induced G2/M phase arrest
cell cycle effect ([9]; LCMT-li/irradiation combination vs irradiation alone): increased G2/M phase arrest
cell cycle effect [10]: increased G2/M phase arrest
cell cycle effect [11]: increased G0/G1 arrest; also recorded: decreased G2/M phase arrest
cell cycle effect [12]: induced G0/G1 as well as G2/M phase arrest
cell cycle effect [14]: did not change cell cycle dynamics
cell cycle effect [15]: induced G0/G1 arrest
cell cycle effect [16]: did not change cell cycle dynamics
